Broadly, the pIC50 is the IC50 on a negative log10 scale, so that one unit is a factor of ten.

The record followed here is ChEMBL document CHEMBL4476865, “Neurotrypsin inhibitors” (2013).

In one data set the target is T1, Neurotrypsin (Homo sapiens, UniProt P56730).
T1 sequence (P56730 whole entry): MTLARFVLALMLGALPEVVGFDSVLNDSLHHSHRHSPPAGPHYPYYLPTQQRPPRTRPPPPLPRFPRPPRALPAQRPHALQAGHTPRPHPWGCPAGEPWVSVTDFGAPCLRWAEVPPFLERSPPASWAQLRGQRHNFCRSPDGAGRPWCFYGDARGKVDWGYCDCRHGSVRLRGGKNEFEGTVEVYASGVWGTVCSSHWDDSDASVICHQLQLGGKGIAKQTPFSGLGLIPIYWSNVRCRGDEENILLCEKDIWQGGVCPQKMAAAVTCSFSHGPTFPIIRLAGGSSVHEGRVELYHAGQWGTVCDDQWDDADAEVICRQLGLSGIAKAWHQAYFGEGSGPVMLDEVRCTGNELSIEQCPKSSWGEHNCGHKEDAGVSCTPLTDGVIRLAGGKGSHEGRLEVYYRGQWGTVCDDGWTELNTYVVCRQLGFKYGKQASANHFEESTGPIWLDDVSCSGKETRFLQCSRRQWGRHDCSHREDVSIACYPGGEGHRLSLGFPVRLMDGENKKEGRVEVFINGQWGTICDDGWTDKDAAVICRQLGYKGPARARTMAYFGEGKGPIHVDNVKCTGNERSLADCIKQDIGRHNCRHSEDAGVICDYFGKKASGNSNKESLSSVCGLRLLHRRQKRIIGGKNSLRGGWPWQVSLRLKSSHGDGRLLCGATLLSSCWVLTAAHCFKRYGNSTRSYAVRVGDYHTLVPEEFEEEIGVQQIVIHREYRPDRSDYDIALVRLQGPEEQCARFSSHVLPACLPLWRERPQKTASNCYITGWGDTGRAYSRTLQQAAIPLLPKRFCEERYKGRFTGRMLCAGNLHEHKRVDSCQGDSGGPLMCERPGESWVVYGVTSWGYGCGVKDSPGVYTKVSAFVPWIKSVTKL
Briefly: Inhibition of human neurotrypsin.

A short description of data set [1]: Toxicity in C57/BL6 mouse assessed as weight loss dosed 3 times at 25 mg/kg, ip equivalent of active ingredient administered with 8 hrs gap between dose 1 and dose 2 and 16 hrs gap between dose 2 and dose 3 (reference value: 5.67%). Format: organism-based. As to conditions: in vivo.
Data set [2] can be described thus: Inhibition of hog trypsin assessed as reduction in liberation of free para-nitroanilide using S-2222 substrate incubated for 20 to 30 mins. More on the design: species or system Sus scrofa.

Structures are written as SMILES. pIC50: −log10 of the molar value. Where only a bound is given, the exact number is not on record here.

`O=C(NCc1ccc(Cl)s1)c1ccc(NC(=O)c2ccc(-c3nc4cc(Cl)c(Cl)cc4[nH]3)cc2)c(C(=O)O)c1` showed a pIC50 on Neurotrypsin of 5.48.

With `NCCCC[C@H](N)C(=O)O.O=C(Nc1ccc(Cl)cc1)c1ccc(NC(=O)c2ccc(-c3nc4cc(Cl)c(Cl)cc4[nH]3)cc2)c(C(=O)O)c1`, in data set [1], the Activity is 5.52%. Moreover, in data set [2], the pIC50 was less than 3.82.
